Test results published in patent US20130136766A1, “EFFECTIVE FRACTION FROM THE FRUITING BODIES OF GANODERMA LUCIDUM, EXTRACTION METHOD, USE AND PREPARATION THEREOF” (Shanghai University of Traditional Chinese Medicine, priority 2010, published 2013).

Test system: STZ-induced type 2 diabetic model rats
Assay: Drug potency on STZ-induced type 2 diabetic model rats (fasting blood glucose)
Type: in vivo
Experimental: The extract from Example 13 was trialed for its drug potency on STZ-induced type 2 diabetic model rats in Center for Drug Safety Evaluation, Shanghai University of Traditional Chinese Medicine.
FYGL was orally administered for various groups as: type 2 diabetes control group with saline 20 mL/kg; type 2 diabetes group with low dose of FYGL 50 mg/kg; type 2 diabetes group with high dose of FYGL 150 mg/kg; metformin group with metformin 200 mg/kg; rosiglitazone group with rosiglitazone 3 mg/kg. Numbers of rats in each group are 10.
The symbol # indicates significant difference of the fasting blood glucose level with p<0.05 and ## indicates very significant difference with p<0.01, referred to that of type 2 diabetes control group.

Compound	fasting blood glucose (10 days, metformin 200 mg/kg)	fasting blood glucose (20 days, metformin 200 mg/kg)	fasting blood glucose (30 days, metformin 200 mg/kg)	fasting blood glucose (10 days, rosiglitazone 3 mg/kg)	fasting blood glucose (20 days, rosiglitazone 3 mg/kg)	fasting blood glucose (30 days, rosiglitazone 3 mg/kg)
CN(C)C(=N)N=C(N)N [Metformin, metformin]	14 ± 4(#) mM	18 ± 5(#) mM	13 ± 2 (##) mM	–	–	–
CN(CCOc1ccc(CC2SC(=O)NC2=O)cc1)c1ccccn1 (stereo not drawn) [rosiglitazone]	–	–	–	14 ± 5(#) mM	14 ± 4(#) mM	12 ± 3 (##) mM
